pIC50: −log10 of the molar value.
Tests used:
[1] = system: cultured human mast cells (CHMC); assay: CHMC low cell density IgE activation: tryptase assay (IgE-induced degranulation); type: cell-based; settings: anti-IgE stimulation, tryptase release, read-out: IgE (first symbol of IgE/Iono): IC50 of IgE-induced degranulation
Description: Inhibition of degranulation was measured at both low and high cell density by quantifying the release of the granule specific factors tryptase, histamine and hexosaminidase. Inhibition of release and/or synthesis of lipid mediators was assessed by measuring the release of leukotriene LTC4 and inhibition of release and/or synthesis of cytokines was monitored by quantifying TNF-α, IL-6 and IL-13. Tryptase and hexosaminidase were quantified using fluorogenic substrates as described in their respective examples. Histamine, TNFα, IL-6, IL-13 and LTC4 were quantified using the following commercial ELISA kits: histamine (Immunotech #2015, Beckman Coulter), TNFα (Biosource #KHC3011), IL-6 (Biosource #KMC0061), IL-13 (Biosource #KHC0132) and LTC4 (Cayman Chemical #520211). The protocols of the various assays are provided below.
7.2.7 CHMC Low Cell Density IgE Activation: Tryptase and LTC4 Assays
(§1) To duplicate 96-well U-bottom plates (Costar 3799) add 65 ul of compound dilutions or control samples that have been prepared in MT [137 mM NaCl, 2.7 mM KCl, 1.8 mM CaCl2, 1.0 mM MgCl2, 5.6 mM Glucose, 20 mM Hepes (pH 7.4), 0.1% Bovine Serum Albumin, (Sigma A4503)] containing 2% MeOH and 1% DMSO. Pellet CHMC cells (980 rpm, 10 min) and resuspend in pre-warmed MT. Add 65 ul of cells to each 96-well plate. Depending on the degranulation activity for each particular CHMC donor, load 1000-1500 cells/well. Mix four times followed by a 1 hr incubation at 37° C. During the 1 hr incubation, prepare 6× anti-IgE solution [rabbit anti-human IgE (1 mg/ml, Bethyl Laboratories A80-109A) diluted 1:167 in MT buffer]. Stimulate cells by adding 25 ul of 6× anti-IgE solution to the appropriate plates. Add 25 ul MT to un-stimulated control wells. Mix twice following addition of the anti-IgE. Incubate at 37° C. for 30 minutes. During the 30 minute incubation, dilute the 20 mM tryptase substrate stock solution [(Z-Ala-Lys-Arg-AMC 2TFA; Enzyme Systems Products, #AMC-246)] 1:2000 in tryptase assay buffer [0.1 M Hepes (pH 7.5), 10% w/v Glycerol, 10 uM Heparin (Sigma H-4898) 0.01% NaN3]. Spin plates at 1000 rpm for 10 min to pellet cells. Transfer 25 ul of supernatant to a 96-well black bottom plate and add 100 ul of freshly diluted tryptase substrate solution to each well. Incubate plates at room temperature for 30 min. Read the optical density of the plates at 355 nm/460 nm on a spectrophotometric plate reader.

[2] = system: cultured human mast cells (CHMC); assay: CHMC low cell density ionomycin activation: tryptase assay (ionomycin-induced degranulation); type: cell-based; settings: ionomycin 2 μM final, tryptase release, read-out: Iono (second symbol of IgE/Iono): IC50 of ionomycin-induced degranulation
Description: as §1
To confirm that many of the pyridine compounds of the invention exert their inhibitory activity by blocking or inhibiting the early IgE receptor signal transduction cascade, several of the compounds were tested in cellular assays for ionomycin-induced degranulation, as described below.
Assays for ionomycin-induced mast cell degranulation were carried out as described for the CHMC Low Density IgE Activation assays, supra, with the exception that during the 1 hour incubation, 6× ionomycin solution [5 mM ionomycin (Sigma I-0634) in MeOH (stock) diluted 1:416.7 in MT buffer (2 μM final)] was prepared and cells were stimulated by adding 25 μl of the 6× ionomycin solution to the appropriate plates.

| Structure (SMILES) | pIC50 [1] | pIC50 [2] |
| --- | --- | --- |
| O=C(OCCS(=O)(=O)c1ccc(N2C(=O)CCC2=O)cn1)c1cccc(Cl)c1 [Compound 67, [(5-{2,5-Dioxotetrahydro-1H-pyrrol-1-yl}-2-pyridinyl)sulfonyl]ethyl 3-chlorobenzoate] | < 5.00 | < 5.00 |
| O=C(OCCSc1ccc([N+](=O)[O-])cn1)c1cccc(Cl)c1 [Compound 5, 2-[(5-Nitro-2-pyridinyl)thio]ethyl-3-chlorobenzoate] | < 5.00 | < 5.00 |
| O=C(OCCS(=O)(=O)c1ccc([N+](=O)[O-])cn1)c1ccc(F)cc1 [Compound 16, 2-[(5-Nitro-2-pyridinyl)sulfonyl]ethyl 4-fluorobenzoate] | > 5.00 | > 5.00 |
| O=C(Nc1ccc(OC(F)(F)F)cc1)Nc1ccc(S(=O)(=O)CCOC(=O)c2cccc(Cl)c2)nc1 [Compound 57, 2-[(5-{4-Trifluoromethoxyphenylureido}-2-pyridinyl)sulfonyl]ethyl-3-chlorobenzoate] | > 5.00 | > 5.00 |
| O=C(OCCS(=O)(=O)c1ccc([N+](=O)[O-])cn1)c1cccc(C(F)(F)F)c1 [Compound 11, 2-[(5-Nitro-2-pyridinyl)sulfonyl]ethyl 3-trifluoromethylbenzoate] | > 5.00 | > 5.00 |
| O=C(OCCS(=O)(=O)c1ccc(N2C(=O)c3ccccc3C2=O)cn1)c1cccc(Cl)c1 [Compound 66, [(5-{1,3-Dihydro-1,3-dioxo-2H-isoindol-2-yl}-2-pyridinyl)sulfonyl]ethyl 3-chlorobenzoate] | > 5.00 | > 5.00 |
| O=C(OCCS(=O)(=O)c1ccc([N+](=O)[O-])cn1)c1cccc(OC(F)(F)F)c1 [Compound 19, 2-[(5-Nitro-2-pyridinyl)sulfonyl]ethyl 3-trifluoromethoxybenzoate] | > 5.00 | > 5.00 |
| CC(C)(C)OC(=O)NCCS(=O)(=O)c1ccc([N+](=O)[O-])cn1 [Compound 41, 2-[(2-{N-tert-Butoxycarbonylamino}ethyl)sulfonyl]-5-nitropyridine] | > 5.00 | > 5.00 |
| O=C(OCC[S+]([O-])c1ccc([N+](=O)[O-])cn1)c1cccc(Cl)c1 (centres unmarked) [Compound 50, 2-[(5-nitro-2-pyridinyl)sulfinyl]ethyl-3-chlorobenzoate] | > 5.00 | > 5.00 |
| O=C(Nc1ccccc1)Nc1ccc(S(=O)(=O)CCOC(=O)c2cccc(Cl)c2)nc1 [Compound 55, 2-[(5-{Phenylureido}-2-pyridinyl)sulfonyl]ethyl-3-chlorobenzoate] | < 5.00 | < 5.00 |
| O=C(OCCS(=O)(=O)c1ccc(C(F)(F)F)cn1)c1cccc(Cl)c1 [Compound 21, 2-[(5-Trifluoromethyl-2-pyridinyl)-2-sulfonyl]ethyl 3-chlorobenzoate] | > 5.00 | > 5.00 |
| O=C(OCCS(=O)(=O)c1ccc([N+](=O)[O-])cn1)c1ccccc1 [Compound 13, 2[(5-Nitro-2-pyridinyl)sulfonyl]ethyl benzoate] | > 5.00 | > 5.00 |
| O=C(OCCS(=O)(=O)c1ccc([N+](=O)[O-])cn1)c1cccc(Cl)c1 [Compound 6, 2-[(5-Nitro-2-pyridinyl)sulfonyl]ethyl 3-chlorobenzoate] | > 5.00 | > 5.00 |
| CCNC(=O)Nc1ccc(S(=O)(=O)CCOC(=O)c2cccc(Cl)c2)nc1 [Compound 56, 2-[(5-{Ethylureido}-2-pyridinyl)sulfonyl]ethyl-3-chlorobenzoate] | < 5.00 | < 5.00 |
| O=C(OCCS(=O)(=O)c1ccc([N+](=O)[O-])cn1)c1ccc(Cl)cc1 [Compound 9, 2-[(5-Nitro-2-pyridinyl)sulfonyl]ethyl 4-chlorobenzoate] | > 5.00 | > 5.00 |

Continued, values first:

| pIC50 [1] | pIC50 [2] | Structure (SMILES) |
| --- | --- | --- |
| > 5.00 | > 5.00 | CC(=O)OCCS(=O)(=O)c1ccc([N+](=O)[O-])cn1 [Compound 17, 2-[(5-Nitro-2-pyridinyl)sulfonyl]ethyl acetate] |
| > 5.00 | > 5.00 | O=C(OCCS(=O)(=O)c1ccc([N+](=O)[O-])cn1)c1ccccc1F [Compound 14, 2-[(5-Nitro-2-pyridinyl)sulfonyl]ethyl 2-fluorobenzoate] |
| > 5.00 | > 5.00 | O=C(OCCS(=O)(=O)c1ccc([N+](=O)[O-])cn1)c1ccccc1C(F)(F)F [Compound 12, 2-[(5-Nitro-2-pyridinyl)sulfonyl]ethyl-2-trifluoromethylbenzoate] |
| > 5.00 | > 5.00 | O=C(OCCS(=O)(=O)c1ccc([N+](=O)[O-])cn1)c1cccc(F)c1 [Compound 15, 2-[(5-Nitro-2-pyridinyl)sulfonyl]ethyl 3-fluorobenzoate] |
| > 5.00 | > 5.00 | CC(=O)NCCS(=O)(=O)c1ccc([N+](=O)[O-])cn1 [Compound 40] |
| > 5.00 | > 5.00 | CCC(=O)OCCS(=O)(=O)c1ccc([N+](=O)[O-])cn1 [Compound 18, 2-[(5-Nitro-2-pyridinyl)sulfonyl]ethyl propionate] |
| > 5.00 | > 5.00 | O=C(NCCS(=O)(=O)c1ccc([N+](=O)[O-])cn1)c1cccc(Cl)c1 [Compound 42, 3-Chloro-N-[2-({5-nitro-2-pyridinyl}sulfonyl)ethyl]benzamide] |

Reference: patent publication US7585883B2, “Substituted pyridines and their uses” (Rigel Pharmaceuticals, Inc., priority 2004, dated 2009)
